Measured values: patent publication US6967196B1, “Sulfonamide compounds and uses thereof” (Bristol-Myers Squibb Company, priority 1999, dated 2005)
Where a name gives a salt, the structure may show the parent alone. Read-outs that look alike come from different tables or passages of the source. Values belong to the compound of their own block, whether it stands above or below them.

System: amyloid β production in transfected H4 (human neuroglioma) cells stably expressing APP constructs
Test: In vitro cell-based assay of inhibitors of amyloid β production (ELISA)
Settings: amyloid β in medium by ELISA, read-out: ACTIVITY (IC50, inhibition of amyloid β production)
Method in brief: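 Sandwich ELISA read-out: Aβ in conditioned medium captured via C-terminal epitope mAb, detected with N-terminus-specific rabbit polyclonal, quantified from a standard curve. Compounds 10-100 μM, ~16 h exposure. Active = ≥50% inhibition vs control without significant cytotoxicity; dose-response follows.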

[1] = Homo sapiens, 16 h, transfected H4 cells stably expressing APP, approximately 16 hours incubation
[2] = transfected H4 cells stably expressing APP, approx. 16 h incubation
[3] = transfected H4 cells stably expressing APP, approximately 16 hours incubation, Table B
[4] = transfected H4 cells stably expressing APP constructs, approximately 16 hours incubation
[5] = transfected H4 cells stably expressing APP, approximately 16 hours incubation

- IC50 [1]: > 500 nM
Compound: O=S(=O)(c1ccc(Cl)cc1)N(Cc1cc(Cl)ccc1C#CCCN1CCCCC1)c1ccccc1 [Example 990, 4-chloro-N-{5-chloro-2-[4-(1-piperidinyl)-1-butynyl]benzyl}-N-phenylbenzenesulfonamide hydrochloride]

- IC50 [2]: 100 to 500 nM
Compound: 3-chloro-N-{3-[2-(1-{[(4-chlorophenyl)sulfonyl]-2,5-difluoroanilino}ethyl)phenoxy]propyl}-N-methylbenzamide [Example 688]

Compound: CC1(O)CCN(CCCOc2ccccc2CN(c2ccccc2)S(=O)(=O)c2ccc(Cl)cc2)CC1 [Example 312, 4-Chloro-N-{2-[3-(4-hydroxy-4-methyl-1-piperidinyl)propoxy]benzyl}-N-phenylbenzenesulfonamide Hydrochloride]
- IC50 [3]: 50 to 100 nM

Compound: C[C@H](COC(=O)N(C)CCCn1ccnc1)N(c1cc(Cl)ccc1Cl)S(=O)(=O)c1ccc(Cl)cc1 [Example 1250, 4-Chloro-N-(2,5-dichlorophenyl)-N-[2-[[[N′-[3-(1H-imidazol-1-yl)propyl]-N′-methylamino]carbonyl]oxy]-(R)-1-methylethyl]benzenesulfonamide]
- IC50 [4]: ≤ 25 nM

- IC50 [4]: 100 to 500 nM
Compound: COC(=O)CS(=O)(=O)CC[C@@H](C)N(c1cc(Cl)ccc1Cl)S(=O)(=O)c1ccc(Cl)cc1 [Example 1191, methyl(6R)-6-[(2,5-dichlorophenyl)-[(4-chlorophenyl)sulfonyl]-amino]-3-thioheptanoic acid, 3,3-dioxide]

- IC50 [5]: > 500 nM
Compound: 2-((1R)-1-{[(4-chlorophenyl)sulfonyl]-2,5-difluoroanilino}ethyl)benzyl 3-fluorobenzylcarbamate [Example 910]

Compound: O=S(=O)(c1ccc(Cl)cc1)N(Cc1ccccc1OCCCN1CCC(O)CC1)c1ccccc1 [Example 298, 4-Chloro-N-{2-[3-(4-hydroxy-1-piperidinyl)propoxy]benzyl}-N-phenylbenzenesulfonamide Hydrochloride]
- IC50 [3]: 50 to 100 nM

- IC50 (Homo sapiens, 16 h, transfected H4 cells stably expressing APP constructs, approximately 16 hours incubation): ≤ 25 nM
Compound: C[C@H](CCCS(=O)(=O)N(C)C)N(c1cc(Cl)ccc1CO)S(=O)(=O)c1ccc(Cl)cc1 [Example 1234, 4-chloro-N-[5-chloro-2-(hydroxymethyl)phenyl]-N-[4-[(dimethylamino)sulfonyl]-1(R)-methylbutyl]benzenesulfonamide]

- IC50 [1]: 100 to 500 nM
Compound: CCC1CCCCN1CCCOc1ccccc1CN(c1ccccc1)S(=O)(=O)c1ccc(Cl)cc1 (centres unmarked) [Example 865, 4-chloro-N-{2-[3-(2-ethyl-1-piperidinyl)propoxy]benzyl}-N-phenylbenzenesulfonamide hydrochloride]

- IC50 (Homo sapiens, 16 h, transfected H4 cells stably expressing APP, approximately 16 hours incubation, Table B): 50 to 100 nM
Compound: C[C@H](c1ccccc1CCC(=O)NCc1ccco1)N(c1cc(F)ccc1F)S(=O)(=O)c1ccc(Cl)cc1 [Example 404, 3-[2-((1R)-1-{[(4-chlorophenyl)sulfonyl]-2,5-difluoroanilino}ethyl)phenyl]-N-(2-furylmethyl)propanamide]

Compound: CC(c1ccccc1OCCCN(C)C(=O)c1cc([N+](=O)[O-])cc([N+](=O)[O-])c1)N(c1cc(F)ccc1F)S(=O)(=O)c1ccc(Cl)cc1 (centres unmarked) [Example 668, N-{3-[2-(1-{[(4-chlorophenyl)sulfonyl]-2,5-difluoroanilino}ethyl)phenoxy]propyl}-N-methyl-3,5-dinitrobenzamide]
- IC50 [2]: 100 to 500 nM

- IC50 [2]: 100 to 500 nM
Compound: (2E)-1-N-{3-[2-({[(4-chlorophenyl)sulfonyl]-2,5-difluoroanilino}methyl)phenoxy]propyl}-N-methyl-2-butenamide [Example 783]

- IC50 [2]: 100 to 500 nM
Compound: N-{3-[2-({[(4-chlorophenyl)sulfonyl]-2,5-difluoroanilino}methyl)phenoxy]propyl}-2,3-difluoro-N-methylbenzamide [Example 665]

- IC50 [5]: > 500 nM
Compound: C[C@@H](c1ccc(F)cc1CCCC(=O)O)N(c1cc(F)ccc1F)S(=O)(=O)c1ccc(Cl)cc1 [Example 1076, 4-[2-((1S)-1-{[(4-chlorophenyl)sulfonyl]-2,5-difluoroanilino}ethyl)-5-fluorophenyl]butanoic acid]
